Experiments:
[1] = octanol/water, nominal temperature of 25 C; from table in CRC Handbook of Chemistry and Physics; cited from earlier work
[2] = Description: Log P values measure the partitioning of a molecule between an octanol-rich and a water-rich layer in contact with one another (see CRC Handbook of Chemistry and Physics, 79th edition, Lide, ed., pp. 16-42-16-46, CRC Press, 1998; and references within, all of which are incorporated herein by reference). Log P values are measured at a nominal temperature of 25 C. More preferably, hydrophobic means having a log P value greater than about 0.5, even more preferably a log P value greater than about 1, even more preferably a log P value greater than about 1.5, and most preferably a log P value greater than about 2.

| Compound | log P [1] | log P (estimate from a similar small molecule) [2] |
| --- | --- | --- |
| CCCCOC(C)=O [butyl acetate] | 1.82 | – |
| poly(lactic acid) | – | approximately 0.2 |

— patent publication US7897563B2, “Use of oligomers and polymers for drug solubilization, stabilization, and delivery” (Soane Family Trust, priority 2001, dated 2011)
